# Measurements as given in patent US20230310427A1, “NEW THERAPEUTIC USE OF RILPIVIRINE” (UNIVERSITY OF SOUTH AUSTRALIA, priority 2020, published 2023).
# How the values were obtained:
# Assay type in all cases: cell-based
# HL-60 cells = test: Cell cycle analysis (flow cytometry)
# Method: (§1) The effect of Rilpivirine on cell cycle distribution in different cancer cell lines was evaluated by flow cytometric analysis. Briefly, cells were seeded in 6-well plates at a density of 6 × 10^4 cells/well. All plates were incubated overnight at 37° C. in a 5% CO2 incubator. Following the incubation, the test compounds (Rilpivirine (Ril) and comparators, Alisertib (Ali; a known Aurora A inhibitor) and Etravirine (Etra; 4-[[6-amino-5-bromo-2-[(4-cyanophenyl)amino]-4-pyrimidinyl]oxy]-3,5-dimethylbenzonitrile - a structurally similar NNRTI drug compound sold under the brand name Intelence® (Janssen Therapeutics)) were added to individual wells and the plates were incubated at same condition for 24 h, 48 h or 72 h. Subsequently, the medium was removed from the wells and transferred into fluorescence-activated cell sorting (FACS) tubes. The adherent cells remaining were trypsinised, re-suspended in media and transferred into the FACS tubes. Cells were centrifuged, fixed with cold 70% ethanol for 15 min and pelleted. The pelleted cells were then re-suspended in 200 µL propidium iodide (PI) solution (50 µg/mL propidium iodide, 0.1 mg/mL ribonuclease A, 0.1% sodium citrate, 0.1% triton X-100) and incubated in the dark for 1.5 h at room temperature. Following the incubation, 200 µL PBS was added. Samples were assessed using a flow cytometer (Cytoflex; Beckman Coulter Inc, Brea, CA, United States of America) and data were analysed using the Cytexpert software.
# Jurkat cells = test: Cell cycle analysis (flow cytometry); settings: various concentrations, 24 hour
# Method: as §1
# K-562 cells = test: Cell cycle analysis (flow cytometry); settings: various concentrations, 24 hour
# Method: as §1
# [1] = tested on: Miapaca-2 (pancreatic) cancer cell lines; test: Cell cycle analysis (flow cytometry); settings: 48 hours; data not shown
# Method: as §1
# NB4 cells = test: Cell cycle analysis (flow cytometry); settings: various concentrations, 24 hour
# Method: as §1
# OVCAR-5 cells = test: Cell cycle analysis (flow cytometry); settings: 72 hour, 5 µM, 10 µM and 20 µM; p53 WT
# Method: as §1
# PC3 cells = test: Cell cycle analysis (flow cytometry); settings: 48 hour treatment; p53 mutant
# Method: as §1
# SKOV-3 cells = test: Cell cycle analysis (flow cytometry); settings: 72 hours, 5 µM, 10 µM and 20 µM; p53 mutant; data not shown
# Method: as §1
# T47D cells = test: Cell cycle analysis (flow cytometry); settings: 48-hour treatment; p53 mutant
# Method: as §1
# U-937 cells = test: Cell cycle analysis (flow cytometry); settings: various concentrations, 24 hour
# Method: as §1
# [2] = tested on: p53 wild-type (WT) A2780 cells; test: Cell cycle analysis (flow cytometry); settings: 24, 48 and 72 hour
# Method: as §1
# [3] = tested on: auto-phosphorylation of Aurora A at Thr288 in HL-60 cells; test: Western blot, Aurora A auto-phosphorylation; settings: 24 hour, 5 µM, 10 µM and 20 µM
# Method: (§2) For Western blotting, cells (8×10^5) were seeded in a culture dish with 10 mL medium and incubated overnight at 37° C., 5% CO2. Untreated and compound-treated cells were lysed using phosphate lysis buffer and protease inhibitors. The protein concentration of each sample was determined by Bio-Rad DC™ protein assay (Bio-Rad Laboratories, Hercules, CA, United States of America). The protein was deactivated at 95° C. for 5 min and then resolved on 4-20% polyacrylamide gels by electrophoresis. Proteins were transferred to polyvinylidene difluoride (PDVF) membrane and blocked for 1 h with 10% skimmed milk (SM) in Tris-buffered saline and Tween (TBST). After adding primary antibody, the membranes were incubated overnight on a rocker in a 4° C. cold room. The following day, membranes were washed in TBST (4×20 min), incubated for at least 1 h at room temperature with the appropriate horseradish peroxidase conjugated secondary antibody. Following this, the blots were washed with TBST (4×20 min) again. The blots were then treated with Western blotting detection reagent and the band intensity was determined using a Bio-Rad ChemiDoc™ MP imaging system (Bio-Rad Laboratories). All the antibodies used for protein detection were from Cell Signaling Technology (Danvers, MA, United States of America). […]
# [4] = tested on: auto-phosphorylation of Aurora A at Thr288 in NB4 cells; test: Western blot, Aurora A auto-phosphorylation; settings: 24 hour, 5 µM, 10 µM and 20 µM
# Method: as §2
# cyclin D1 in A2780 cells = test: Western blot, cell cycle regulatory proteins; settings: 24 hour, increasing amounts
# Method: (§3) For Western blotting, cells (8×10^5) were seeded in a culture dish with 10 mL medium and incubated overnight at 37° C., 5% CO2. Untreated and compound-treated cells were lysed using phosphate lysis buffer and protease inhibitors. The protein concentration of each sample was determined by Bio-Rad DC™ protein assay (Bio-Rad Laboratories, Hercules, CA, United States of America). The protein was deactivated at 95° C. for 5 min and then resolved on 4-20% polyacrylamide gels by electrophoresis. Proteins were transferred to polyvinylidene difluoride (PDVF) membrane and blocked for 1 h with 10% skimmed milk (SM) in Tris-buffered saline and Tween (TBST). After adding primary antibody, the membranes were incubated overnight on a rocker in a 4° C. cold room. The following day, membranes were washed in TBST (4×20 min), incubated for at least 1 h at room temperature with the appropriate horseradish peroxidase conjugated secondary antibody. Following this, the blots were washed with TBST (4×20 min) again. The blots were then treated with Western blotting detection reagent and the band intensity was determined using a Bio-Rad ChemiDoc™ MP imaging system (Bio-Rad Laboratories). All the antibodies used for protein detection were from Cell Signaling Technology (Danvers, MA, United States of America). The primary and secondary antibodies used were obtained from Cell Signalling Technology (Danvers, MA, United States of America).
# p21 in A2780 cells = test: Western blot, cell cycle regulatory proteins; settings: 24 hour, increasing concentration
# Method: as §3
# p53 in A2780 cells = test: Western blot, cell cycle regulatory proteins; settings: 24 hour, increasing concentration
# Method: as §3
# [5] = tested on: phosphorylated retinoblastoma (Rb) protein in A2780 cells; test: Western blot, cell cycle regulatory proteins; settings: 24 hour, increasing amounts
# Method: as §3
# [6] = tested on: cyclin D1 mRNA in A2780 cells; test: RT-qPCR; settings: 24 hours
# Method: (§4) The expression of different genes at the mRNA level was assayed by RT-qPCR. Briefly, cells (1×10^6) were seeded in 10 cm tissue culture plates and treated with compounds after having been cultured overnight at 37° C., 5% CO2. RNA was extracted using the High Pure RNA Isolation Kit (Roche Applied Science, Castle Hill, NSW, Australia) according to the manufacturer’s instructions. The concentration of RNA in each sample was determined using a NanoDrop® ND1000 spectrophotometer (ThermoFisher Scientific, Waltham, MA, United States of America). 1 µg of RNA was used in a 20 µL reverse transcription reaction using a Transcriptor First Strand cDNA Synthesis Kit (Roche Applied Science). RT-qPCR was completed using duplicate samples with cDNA using SYBR Green I dye (Roche Applied Science) and performed using Light Cycler LC96 (Roche Applied Science, Penzberg, Germany). GAPDH mRNA was used as a reference sequence and data was analysed using Bio-Rad CFX manager version 3.1.
# p53 mRNA in A2780 cells = test: RT-qPCR; settings: 24 hours
# Method: as §4
smiles,measurement,setting,value
"Cc1cc(/C=C/C#N)cc(C)c1Nc1ccnc(Nc2ccc(C#N)cc2)n1 [Rilpivirine, 4-[[4-[4-[(E)-2-cyanoethenyl]-2,6-dimethylanilino]pyrimidin-2-yl]amino]benzonitrile]",cell cycle arrest,"HL-60 cells; 5, 10 and 20 µM for 24 hrs, p53 null",arrested in the G2/M Phase
same,numbers of cells in G2/M,"HL-60 cells; 24 hour treatment, versus diluent only",approximately doubled
same,cell cycle arrest,Jurkat cells,arrests NB4 and Jurkat cells in the G2/M phase in a dose-dependent manner
same,cell cycle arrest,K-562 cells,arrests both of these cell lines in the G2/M phase in a dose-dependent manner
same,cell cycle arrest,[1],G2/M arrest increased with increasing concentrations of the drug
same,cell cycle arrest,NB4 cells,arrests NB4 and Jurkat cells in the G2/M phase in a dose-dependent manner
same,cell cycle arrest,OVCAR-5 cells,arrests the cells in the G1 phase or accumulated in Sub-G1 phase at higher concentrations
same,cell cycle arrest,PC3 cells,induce G2/M arrest
same,cell cycle arrest,SKOV-3 cells,caused G2/M arrest in a dose-dependent manner
same,cell cycle arrest,T47D cells,arrest T47D breast cancer cells in G2/M phase
same,cell cycle arrest,U-937 cells,arrests both of these cell lines in the G2/M phase in a dose-dependent manner
same,cell cycle arrest,[2]; 10 µM,arrests the cells in the G1 phase
same,cell cycle distribution,[2]; 20 µM,increased number of cells accumulated in Sub-G1 phase
same,level of auto-phosphorylated Aurora A (Thr288),[3],marked decrease in the level of auto-phosphorylated protein
same,level of auto-phosphorylated Aurora A (Thr288),[4],marked decrease in the level of auto-phosphorylated protein
same,amount of cyclin D1,cyclin D1 in A2780 cells,decrease
same,p21 protein,p21 in A2780 cells,induced its target gene p21
same,expression of p53 protein,p53 in A2780 cells,increase in the expression of p53
same,amount of phosphorylated Rb protein,[5],decrease
same,cyclin D1 mRNA,[6],decrease in cyclin D1mRNA was observed in a dose-dependent manner
same,p53 mRNA expression,p53 mRNA in A2780 cells; 20 µM,dramatic increase in p53 expression
same,p53 mRNA expression,p53 mRNA in A2780 cells; increasing concentration,upregulated p53 expression
